Measurements reported in patent publication US8323706B2, “Antiestrogenic glyceollins suppress human breast and ovarian carcinoma proliferation and tumorigenesis” (The United States of America, as represented by the …, priority 2005, dated 2012).

Columns and labels:
[1] = test system: MCF-7 breast carcinoma cell; test: In vitro MCF-7 colony (clonogenicity) assay; assay type: cell-based, human; details: estrogen treatment alone
Procedure: The MCF-7N cell variant is a subclone of MCF-7 cells from the American Type Culture Collection (Manassas, Va.) that was generously provided by Louise Nutter (University of Minnesota, Minneapolis, Minn.) and has been previously described (Graham et al., supra). The BG-1 cell line has been previously described. MCF-7 and BG-1 cells were grown in Dulbecco's modified minimal medium (pH 7.4; Life Technologies, Inc., Grand Island, N.Y.) supplemented with 10% fetal bovine serum (Hyclone, Salt Lake City, Utah). For studies with estrogen, the cells were cultured in medium supplemented with 5% charcoal-stripped fetal bovine serum. The cells were incubated at 37° C. in an atmosphere of 5% CO2 and air.
MCF-7 cells are plated at 10^3/well in 6 well Cluster dishes, and incubated overnight. Cells are cultured and treated in DMEM without phenol red; phenol red interacts with estrogen receptors. Treatment and control plates were incubated at 37° C., 5% CO2. Plates were observed periodically. When colonies were of a size of 50 cells or more, at Day 14, cells were fixed with glutaraldehyde for 30 min at 37° C., washed, and stained with Crystal violet (0.4%) for 1 hr. Colonies were counted manually. This method is used to study the effects of chemical or physical agents on cell survival and proliferation; 1 colony=1 cell. […]

[2] = test system: MCF-7 breast carcinoma cells; test: MCF-7 xenograft tumor growth in ovariectomized nu/nu mice; assay type: in vivo; details: estradiol pellet alone; day 20; mean±SEM
Procedure: (§1) Cages, bedding, food, and water were autoclaved before use. […] Tumor size was measured every two days using calipers.
(§2) The in vivo effects of glyceollins on tumor growth formation were determined. MCF-7 or BG-1 cells were implanted into the mammary fat pad of female ovariectomized nude mice. Mice were divided into two groups: those animals implanted s.c. with estradiol pellets and those without. Tumors were implanted using Matrigel (reduced factor) to enhance tumor incidence and promote tumor growth in the presence and absence of estrogen. Glyceollins (or vehicle) were injected daily for 20 days. Measurable tumors were observed on Day 8 for both MCF-7 cells (FIG. 3) and BG-1 cells (FIG. 4). […] Estrogen stimulated the formation of rapidly growing tumors in both MCF-7 and BG-1 implanted mice, reaching a maximal size of 3074±843 mm^3 in MCF-7 and 3836±756 mm^3 in BG-1 implanted animals by day 20 of treatment. In the negative control animals (without estrogen pellets or glyceollins), tumor incidence occurred on […] and tumors grew slowly with a maximal size of 899±24 mm^3 for MCF-7 cells and 976±42 mm^3 for BG-1 cells on day 20 of treatment. […]
(§3) Data Analysis: Data for MCF-7N and BG-1 tumor size were analyzed separately using repeated measures two-way ANOVA with treatment and time as independent factors (SigmaStat 3.1). […]

[3] = test system: BG-1 ovarian carcinoma cells; test: BG-1 xenograft tumor growth in ovariectomized nu/nu mice; assay type: in vivo; details: estradiol pellet alone; day 20; mean±SEM
Procedure: as §1, §2, §3

[4] = test system: progesterone receptor (PR); test: Progesterone receptor immunohistochemistry in MCF-7 tumor explants; assay type: in vivo, mice; details: treatment alone vs control; MCF-7 tumors
Excerpt: (§4) Tumor explants were resected at necropsy, fixed in 70% ethanol, embedded in paraffin, and immunostained using a primary monoclonal antibody for human progesterone receptor (PR) (NCL-PGR, Novocastra, Newcastle-upon-Tyne, UK). Staining methods included antigen-retrieval with citrate buffer (pH 6.0), biotinylated rabbit anti-mouse Fc antibody as a linking reagent, alkaline phosphatase-conjugated streptavidin as the label, and Vector Red as the chromogen (Vector Laboratories, Burlingame, Calif.). Cell staining was quantified by a computer-assisted counting technique, using a grid filter to select cells for counting (Darvill et al., supra; Burow et al., supra). At least two microscopic fields were randomly selected for each tumor and 200 cells were counted at 40× magnification. Numbers of positively stained cells were expressed as a percentage of the total number examined. All measurements were made blinded to treatment group.
(§5) Progesterone receptor expression is an estrogen-sensitive marker driven by ER transactivation. In this study we used PR immunostaining to evaluate (a) whether glyceollin treatment alone was stimulating the ER as an agonist and (b) whether glyceollin treatment with estradiol (E2) was antagonizing ER activation.

[5] = test system: progesterone receptor (PR); test: Progesterone receptor immunohistochemistry in BG1 tumor explants; assay type: in vivo, mice; details: treatment alone vs control; BG1 tumors
Excerpt: as §4, §5

[6] = test system: Mouse uteri; test: Uterine weight and morphology (uterotrophic assay) in nu/nu mice

Row | Structure (SMILES) | colony formation [1] | tumor size (maximal) [2] | tumor size (maximal) [3] | PR expression [4] | PR expression [5] | uterine histology ([6]; H&E-stained uteri, treatment alone) | Uterine area, uterine diameter, and epithelial height ([6]; treatment alone vs control) | uterine fixed weight over control ([6]; treatment alone, 20 days)
1 | C[C@]12CC[C@@H]3c4ccc(O)cc4CC[C@H]3[C@@H]1CC[C@@H]2O [Glyceollin E2, 17β-estradiol] | enhanced colony formation | 3074±843 mm^3 | 3836±756 mm^3 | significantly increased PR expression | significantly increased PR expression | markedly larger with epithelial pseudostratification, stromal edema and hyperplasia, and increased numbers of endometrial glands | significantly increased | 
2 | CC/C(=C(\c1ccccc1)c1ccc(OCCN(C)C)cc1)c1ccccc1 [tamoxifen] |  |  |  |  |  |  |  | increase uterine fixed weight over control
